Test results taken from patent publication US20070092551A1, “Therapeutic agent” (TAKARA BIO INC., priority 2003, published 2007).
Where two headings read alike, the source gives them in different places.

System: mature adipocytes (3T3-L1 cells)
Assay: Enhancing action on glucose uptake (2-deoxyglucose) into mature adipocytes
Format: cell-based
Details: Mus musculus
Procedure: The induction of differentation into nature adipocytes was carried out by partially modifying the above-mentioned method of Rubin C. S. et al. 3T3-L1 cells (ATCC CCL-92.1) were suspended in a 10% fetal bovine serum (manufactured by Bio Whittaker)-containing Dulbecco's modified Eagle's medium (manufactured by Sigma, D6046) containing 200 μM ascorbic acid so as to have a density of 4×10^3 cells/mL, and the suspension was put in each well of a collagen type I-coated 12-well plate (Iwaki Glass Co., Ltd., code 4815-010) in an amount of 2 mL per well. The cells were cultured at 37° C. for 7 days in the presence of 5% carbon dioxide gas. On the seventh day, the medium was exchanged with 2 mL of a 10% fetal bovine serum (manufactured by Bio Whittaker)-containing Dulbecco's modified Eagle's medium containing 200 μM ascorbic acid, 0.25 μM dexamethasone, 10 μg/mL insulin (manufactured by TAKARA BIO INC.) and 0.5 mM 3-isobutyl-1-methylxanthine (manufactured by nacalai tesque, 19624-86). After 45 hours, the medium was exchanged with 2 mL of a 10% fetal bovine serum-containing Dulbecco's modified Eagle's medium containing 200 μM ascorbic acid and 5 μg/mL insulin. The medium was exchanged on after 2 days and 5 days, and the cells were cultured for 7 days, to give mature adipocytes.
As the evaluation of the enhancing action on glucose uptake, and also as the evaluation of the insulin-mimetic action, the amount of 2-deoxyglucose uptake into mature adipocytes during the stimulation of the test compound in the adipocytes was determined. As a test compound, a compound prepared in the Examples mentioned above or a commercially available compound was used.
After the termination of the culture, the medium was removed, and the cells were washed twice with a 0.1% (w/v) bovine serum albumin (manufactured by Sigma, A8022)-containing Dulbecco's modified Eagle's medium. Thereafter, 1 mL of the same medium containing a test compound in a concentration shown in each of Tables 20 to 23 was put to each well. The cells were cultured overnight at 37° C. in the presence of 5% carbon dioxide gas. Here, a group without containing the test compound was set as a negative control. After the overnight culture, the cells were washed twice with a HEPES buffer (140 mM NaCl, 5 mM KCl, 2.5 mM MgSO4, 1 mM CaCl2, 20 mM HEPES-Na (pH 7.4)). The amount 0.9 mL of the buffer containing a test compound in the same concentration was added to each well. The cells were cultured at 37° C. for 75 minutes. During the culture, as a positive control, there was set a group with addition of insulin to the well without addition of a test compound at a point 45 minutes passed so as to have a final concentration of 1 μg/mL. Thereafter, 100 μL of a HEPES buffer containing 0.5 μCi/mL 2-deoxy-[1,2-^3H(N)]-glucose (manufactured by PerkinElmer Life Sciences Inc., NET549A) and 1 mM 2-deoxyglucose (manufactured by nacalai tesque, 10722-11) was added thereto. The cells were cultured at 37° C. for additional 10 minutes. After the termination of the culture, the supernatant was removed, and the cells were washed three times with a phosphate buffer cooled to 4° C. Thereafter, 0.5 mL of a 1% Nonidet P-40-containing phosphate buffer was added to lyse the cells, whereby 2-deoxy-[1,2-^3H(N)]-glucose subjected to uptake into the cells was eluted. The radioactivity was determined with a liquid scintillation counter LS6500 (manufactured by Beckmann) using 25 μL of the supernatant with Ultima Gold (manufactured by PerkinElmer Life Sciences Inc., 6013329) as a scintillation cocktail. The enhancing action on glucose uptake was calculated by the following calculation formula, and shown by four ranks of +++, ++, + and +/−. • S: Amount of 2-deoxyglucose uptake in the presence of a test compound; • N: Amount of 2-deoxyglucose uptake in the negative control; and • P: Amount of 2-deoxyglucose uptake in the positive control; X=(S−N)/(P−N) (Judgment of Enhancing Action for 2-Deoxyglucose Uptake)

[1] = 3T3-L1, 10 μM, X=(S−N)/(P−N) of 2-deoxyglucose uptake, P=insulin 1 μg/mL, read-out: Enhancing Action on Glucose Uptake
[2] = 3T3-L1, 30 μM, X=(S−N)/(P−N) of 2-deoxyglucose uptake, P=insulin 1 μg/mL, read-out: Enhancing Action on Glucose Uptake
[3] = 3T3-L1, 3 μM, X=(S−N)/(P−N) of 2-deoxyglucose uptake, P=insulin 1 μg/mL, read-out: Enhancing Action on Glucose Uptake
[4] = 3T3-L1, read-out: Enhancing Action on Glucose Uptake

Compound | activation at 10 µM [1] [%] | activation at 30 µM [2] [%] | further results
C/C=C(/C)C(=O)OC1Cc2c(ccc3ccc(=O)oc23)OC1(C)C (stereo not shown) [Coumarin Compound B, 3′-angeloyloxy-3′,4′-dihydroseselin] | > 100 | > 100 | 
CC(=O)c1cc(CC=C(C)C)c(O)cc1O [Compound (C025), 2′,4′-dihydroxy-5′-prenylacetophenone] | 15 to 30 | 30 to 60 | 
O=C(/C=C/c1ccc(O)c(O)c1)c1ccc(Cl)cc1Cl [Compound (C011), 3,4-dihydroxy-2′,4′-dichlorochalcone] | 60 to 100 | > 100 | activation at 3 µM [3]: 15 to 30%
C/C=C(/C)C(=O)OC1c2c(ccc3ccc(=O)oc23)OC(C)(C)C1OC(C)=O (stereo not shown) [Coumarin Compound A, 3′-acetoxy-4′-angeloyloxy-3′,4′-dihydroseselin] | > 100 | > 100 | 
CC(C)=CCC/C(C)=C/CC/C(C)=C/Cc1c(O)ccc(C(=O)/C=C/c2ccc(O)cc2)c1O [Compound (C058), 4,2′,4′-trihydroxy-3′-farnesylchalcone] |  | > 100 | 
O=C(/C=C/c1ccc(O)c(O)c1)c1ccccc1O [Compound (C005), 3,4,2′-trihydroxychalcone] | 30 to 60 | 30 to 60 | 
COc1ccc2c(c1CC=C(C)C)OC(c1ccco1)C(=Cc1ccco1)C2=O (stereo not shown) [Compound (FUR-2), 2-(2-furyl)-3-(2-furylmethylene)-2,3-dihydro-7-methoxy-8-prenyl-4H-1-benzopyran-4-one] | 30 to 60 | 30 to 60 | activation at 3 µM [3]: 15 to 30%
O=C(/C=C/c1ccccc1)c1ccccc1 [Chalcone] | 30 to 60 | 30 to 60 | 
CC(C)=CCCC1(C)C=Cc2c(ccc(C(=O)/C=C/c3ccc(O)cc3)c2O)O1 (stereo not shown) [Lespeol] | 60 to 100 | 60 to 100 | 
COc1ccc(C(=O)/C=C/c2ccc(O)cc2)c(O)c1CCC(C)C [Compound (C043), 4,2′-dihydroxy-3′-(3-methylbutyl)-4′-methoxychalcone] | > 100 |  | activation at 3 µM [3]: 15 to 30%
COc1ccc(C=O)c(O)c1 [2-Hydroxy-4-methoxybenzaldehyde] | 15 to 30 | 30 to 60 | 
COc1ccc(C(=O)/C=C/C=C/c2ccccc2)c(O)c1CC=C(C)C [Compound (C-CIN), 1-(2-hydroxy-4-methoxy-3-prenylphenyl)-5-phenyl-2,4-pentadien-1-one] | 15 to 30 | > 100 | activation at 3 µM [3]: 15 to 30%
COc1ccc(C(=O)/C=C/c2ccc(O)cc2)c(O)c1C/C=C(\C)CC/C=C(\C)CCC=C(C)C [Compound (C053), 4,2′-dihydroxy-3′-farnesyl-4′-methoxychalcone] | > 100 | > 100 | activation at 3 µM [3]: 30 to 60%
COc1ccc(C(=O)/C=C/c2ccc(OC3CCCCO3)cc2)c(O)c1CC=C(C)C (stereo not shown) [Compound (C030), 4-tetrahydropyranyloxy-2′-hydroxy-3′-prenyl-4′-methoxychalcone] | 30 to 60 | > 100 | 
CC(=O)c1ccc(OC2CCCCO2)c(C/C=C(\C)CCC=C(C)C)c1O (stereo not shown) [Compound (C045), 2′-hydroxy-3′-geranyl-4′-tetrahydropyranyloxyacetophenone] | 15 to 30 | 30 to 60 | 
CCCCC1OC(=O)C2=CCCCC21 (stereo not shown) [Sedanolide] | 15 to 30 | 60 to 100 | 
COc1ccc(C(=O)/C=C/c2ccc(O)c(O)c2)c(O)c1CC=C(C)C [Compound (C031), 3,4,2′-trihydroxy-3′-prenyl-4′-methoxychalcone] | 15 to 30 | > 100 | 
C/C=C(/C)C(=O)OC1C(O)c2c(ccc3ccc(=O)oc23)OC1(C)C (stereo not shown) [Coumarin Compound C, 3′-angeloyloxy-4′-hydroxy-3′,4′-dihydroseselin] |  | 30 to 60 | 
O=C(/C=C/c1ccc(O)c(O)c1)c1cc(O)ccc1O [Compound (C006), 3,4,2′,5′-tetrahydroxychalcone] | 30 to 60 |  | 
CCC/C=C1\OC(=O)c2ccccc21 [n-Butylidenephthalide] |  |  | activation at 3 µM [4]: 30 to 60%; activation at 10 µM [4]: 60 to 100%; activation at 30 µM [4]: > 100%
COc1ccc(C(=O)/C=C/c2ccc(O)cc2)c(O)c1CC1C2(C)CCC(O2)C1(C)C (stereo not shown) [TB7, 1-[3-(2,5-epoxy-2,6,6-trimethyl-cyclohexylmethyl)-2-hydroxy-4-methoxyphenyl]-3-(4-hydroxyphenyl)-2-propen-1-one] | > 100 | > 100 | 
CCOc1ccc(C(=O)/C=C/c2ccc(O)cc2)c(O)c1C/C=C(\C)CCC=C(C)C [Compound (C050), 4,2′-dihydroxy-3′-geranyl-4′-ethoxychalcone] | > 100 |  | activation at 3 µM [3]: 15 to 30%
